Laboratory results from ChEMBL document CHEMBL1121515 (J Med Chem, 1980).
The source made the active and inactive calls. No cut-off for these calls is given here.

What was measured:
Mus musculus [1] = species on record: Mus musculus; experiment: Relative CNS activity of compound was measured in mice (++ =for activity in 4-5 assays); format: functional, organism-based; settings: Central nervous system
[2] = Lethal dose was measured in mice 0.5 hr post intraperitoneal administration; format: toxicity, organism-based; settings: mouse, in vivo, ip
Rattus norvegicus [3] = species on record: Rattus norvegicus; experiment: Conditioned avoidance response (CAR) was measured in rats; I = inactive; format: functional, organism-based
Mus musculus [4] = species on record: Mus musculus; experiment: Relative CNS activity of compound was measured in mice; (-) </= […]; format: functional, Central nervous system
Rattus norvegicus [5] = species on record: Rattus norvegicus; experiment: Conditioned avoidance response (CAR) was measured in rats; Inactive; format: functional, organism-based
Rattus norvegicus [6] = experiment: Conditioned avoidance response (CAR) was measured in rats at 10 mg/kg; Inactive; format: functional, organism-based; design: dose 10 mg/kg
Rattus norvegicus [7] = experiment: Conditioned avoidance response (CAR) was measured in rats at 40 mg/kg; Active; format: functional, organism-based; design: dose 40 mg/kg
Rattus norvegicus [8] = experiment: Conditioned avoidance response (CAR) was measured in rats at 10 mg/kg;I = inactive; format: functional, organism-based; design: dose 10 mg/kg
Rattus norvegicus [9] = experiment: Conditioned avoidance response (CAR) was measured in rats at 40 mg/kg;A = active; format: functional, organism-based; design: dose 40 mg/kg
Mus musculus [10] = species on record: Mus musculus; experiment: Relative CNS activity of compound was measured in mice (+++ =for activity in > 6 assays); format: functional, organism-based; settings: Central nervous system
Rattus norvegicus [11] = experiment: Conditioned avoidance response (CAR) was measured in rats at 5 mg/kg doses; I = inactive; format: functional, organism-based; design: dose 5 mg/kg
Rattus norvegicus [12] = experiment: Conditioned avoidance response (CAR) was measured in rats at 20 mg/kg doses; I = inactive; format: functional, organism-based; design: dose 20 mg/kg
Mus musculus [13] = species on record: Mus musculus; experiment: Relative CNS activity of compound was measured in mice (for activity in 2-3 assays); format: functional, organism-based; settings: Central nervous system
Rattus norvegicus [14] = experiment: Conditioned avoidance response (CAR) was measured in rats at 40 mg/kg; A = active; format: functional, organism-based; design: dose 40 mg/kg
Rattus norvegicus [15] = experiment: Conditioned avoidance response (CAR) was measured in rats at 20 mg/kg; A = active; format: functional, organism-based; design: dose 20 mg/kg
Rattus norvegicus [16] = experiment: Conditioned avoidance response (CAR) was measured in rats at 10 mg/kg; I = inactive; format: functional, organism-based; design: dose 10 mg/kg

Br.CC1Cc2cccc(-c3ccccc3)c2CN1C (configuration not stated)
Activity (Mus musculus [1]): Active | LD50 at 0.5 h [2]: < 320 mg/kg | CAR (Rattus norvegicus [3]): inactive

COc1ccccc1-c1cccc2c1CN(Cc1ccccc1)CC2.Cl
Activity (Mus musculus [4]): <=1 | LD50 at 0.5 h [2]: > 160 mg/kg | CAR (Rattus norvegicus [5]): inactive

COc1ccccc1-c1cccc2c1CN(C)CC2.Cl
Activity (Mus musculus [4]): <=1 | LD50 at 0.5 h [2]: 81 mg/kg | CAR (Rattus norvegicus [6]): inactive | CAR (Rattus norvegicus [7]): Active

CN1CCc2cccc(-c3ccccc3)c2C1.O=C(O)/C=C/C(=O)O
LD50 at 0.5 h [2]: < 320 mg/kg | CAR (Rattus norvegicus [8]): inactive | CAR (Rattus norvegicus [9]): Active | Activity (Mus musculus [10]): Weak activity

CC1Cc2cccc(-c3ccccc3)c2CN1.Cl (configuration not stated)
Activity (Mus musculus [4]): <=1 | LD50 at 0.5 h [2]: 146 mg/kg | CAR (Rattus norvegicus [11]): inactive | CAR (Rattus norvegicus [12]): inactive

COc1cccc(-c2cccc3c2CNCC3)c1.Cl
Activity (Mus musculus [1]): Active | LD50 at 0.5 h [2]: < 160 mg/kg | CAR (Rattus norvegicus [6]): inactive | CAR (Rattus norvegicus [7]): Active

Cl.c1ccc(CN2CCc3cccc(-c4ccccc4)c3C2)cc1
Activity (Mus musculus [4]): <=1 | LD50 at 0.5 h [2]: 158 mg/kg | CAR (Rattus norvegicus [3]): inactive

COc1cccc(-c2cccc3c2CN(C)CC3)c1.Cl
Activity (Mus musculus [13]): Weak activity | LD50 at 0.5 h [2]: 156 mg/kg | CAR (Rattus norvegicus [6]): inactive | CAR (Rattus norvegicus [7]): Active

COc1cccc(-c2cccc3c2CN(Cc2ccccc2)CC3)c1.Cl
Activity (Mus musculus [4]): <=1 | LD50 at 0.5 h [2]: > 320 mg/kg | CAR (Rattus norvegicus [5]): inactive

COc1ccccc1-c1cccc2c1CNCC2.Cl
Activity (Mus musculus [1]): Active | LD50 at 0.5 h [2]: 81 mg/kg

CC1Cc2cccc(-c3ccccc3)c2CN1Cc1ccccc1.Cl (configuration not stated)
Activity (Mus musculus [13]): Weak activity | LD50 at 0.5 h [2]: 227 mg/kg | CAR (Rattus norvegicus [14]): Active | CAR (Rattus norvegicus [8]): inactive

Cl.c1ccc(-c2cccc3c2CNCC3)cc1
Activity (Mus musculus [4]): <=1 | LD50 at 0.5 h [2]: 82 mg/kg | CAR (Rattus norvegicus [15]): Active | CAR (Rattus norvegicus [16]): inactive
